According to PubChem BioAssay (NCI):
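The compound was tested at five concentrations on cells cultured in 96-well plates, with a 48-hour exposure period. Definition used: TGI = concentration required for complete inhibition of growth.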

Legend:
Experiment in all cases: growth of human tumour cells (NCI), 48 h
[1] = test system: OVCAR-3 ovarian
[2] = test system: HL-60(TB) leukemia
[3] = test system: NCI-H23 lung
[4] = test system: HCC-2998 colon
[5] = test system: IGROV1 ovarian
[6] = test system: KM12 colon
[7] = test system: RXF 393 renal
[8] = test system: T-47D breast
[9] = test system: LOX IMVI melanoma
[10] = test system: SR leukemia
[11] = test system: MALME-3M melanoma
[12] = test system: NCI-H226 lung
[13] = test system: MDA-MB-435
[14] = test system: NCI-H522 lung
[15] = test system: UACC-257 melanoma
[16] = test system: CCRF-CEM leukemia
[17] = test system: MOLT-4 leukemia
[18] = test system: NCI/ADR-RES ovarian
[19] = test system: K-562 leukemia
[20] = test system: A498 renal
[21] = test system: OVCAR-4 ovarian
[22] = test system: CAKI-1 renal
[23] = test system: HS 578T breast
[24] = test system: OVCAR-8 ovarian
[25] = test system: OVCAR-5 ovarian
[26] = test system: UO-31 renal
[27] = test system: TK-10 renal
[28] = test system: HOP-62 NSCLC
[29] = test system: HCT-116 colon
[30] = test system: EKVX NSCLC
[31] = test system: RPMI-8226 leukemia
[32] = test system: SK-MEL-28 melanoma
[33] = test system: MCF7 breast
[34] = test system: SK-OV-3 ovarian
[35] = test system: SK-MEL-5 melanoma
[36] = test system: HCT-15 colon
[37] = test system: A549 NSCLC
[38] = test system: BT-549 breast
[39] = test system: HT29 colon
[40] = test system: SN12C renal
[41] = test system: SF-539 CNS
[42] = test system: SW-620 colon
[43] = test system: PC-3 prostate
[44] = test system: HOP-92 NSCLC
[45] = test system: M14 melanoma
[46] = test system: ACHN renal
[47] = test system: UACC-62 melanoma
[48] = test system: 786-0 renal
[49] = test system: MDA-MB-231 breast
[50] = test system: NCI-H460 lung
[51] = test system: COLO 205 colon
[52] = test system: DU-145 prostate
[53] = test system: SK-MEL-2 melanoma
[54] = test system: U251 CNS
[55] = test system: SF-268 CNS
[56] = test system: SNB-19 CNS
[57] = test system: SNB-75 CNS
[58] = test system: MDA-N
[59] = test system: SF-295 CNS

In the case of `O=C(N/N=C/c1ccc2c(c1)OCO2)Nc1ccccc1Cl`, the TGI [1] is reported as 2.82 µM, the TGI [2] is reported as over 23.1 µM and the TGI [3] is reported as over 43.8 µM. It also gave a TGI [4] of 5.14 µM, a TGI [5] of over 35.3 µM and a TGI [6] of over 100 µM. It also gave a TGI [7] of 12.2 µM, a TGI [8] of over 38.3 µM and a TGI [9] of over 100 µM. For the same compound, the TGI [10] was over 34.2 µM, the TGI [11] was 56.2 µM and the TGI [12] was over 73.5 µM. It also gave a TGI [13] of 1.33 µM, a TGI [14] of 1.1 µM and a TGI [15] of over 100 µM. It also gave a TGI [16] of over 100 µM, a TGI [17] of over 100 µM and a TGI [18] of 2.4 µM. The TGI [19] was over 100 µM, the TGI [20] was 35.6 µM and the TGI [21] was over 100 µM. It also gave a TGI [22] of over 100 µM, a TGI [23] of 8.25 µM and a TGI [24] of over 43.1 µM. The TGI [25] was over 100 µM, the TGI [26] was over 100 µM and the TGI [27] was 21 µM. For the same compound, the TGI [28] was over 100 µM, the TGI [29] was over 100 µM and the TGI [30] was over 60.5 µM. It also gave a TGI [31] of over 56.2 µM, a TGI [32] of over 100 µM and a TGI [33] of over 100 µM. It also gave a TGI [34] of over 24.9 µM, a TGI [35] of 15.3 µM and a TGI [36] of over 100 µM. For the same compound, the TGI [37] was over 100 µM, the TGI [38] was 75.7 µM and the TGI [39] was over 49.1 µM. For the same compound, the TGI [40] was over 46.7 µM, the TGI [41] was 24.8 µM and the TGI [42] was over 100 µM. It also gave a TGI [43] of over 100 µM, a TGI [44] of over 40 µM and a TGI [45] of over 39.5 µM. The TGI [46] was over 100 µM, the TGI [47] was over 83.1 µM and the TGI [48] was over 55 µM. The TGI [49] was over 100 µM, the TGI [50] was 16.6 µM and the TGI [51] was 5.52 µM. For the same compound, the TGI [52] was over 20.3 µM, the TGI [53] was 25.2 µM and the TGI [54] was over 100 µM. For the same compound, the TGI [55] was over 82.5 µM, the TGI [56] was over 79.3 µM and the TGI [57] was 2.38 µM. For the same compound, the TGI [58] was 0.501 µM and the TGI [59] was 6.84 µM.
With `COc1ccc(/C=C2\CCC(CNc3cc(C)on3)C2=O)cc1` (configuration not stated) the TGI [1] was over 100 µM, the TGI [2] was over 21.5 µM and the TGI [3] was over 100 µM. For the same compound, the TGI [4] was over 100 µM, the TGI [5] was over 100 µM and the TGI [6] was over 100 µM. It also gave a TGI [7] of over 21.5 µM, a TGI [8] of over 91.1 µM and a TGI [9] of over 100 µM. For the same compound, the TGI [10] was over 100 µM, the TGI [11] was over 100 µM and the TGI [12] was over 100 µM. For the same compound, the TGI [13] was over 100 µM, the TGI [14] was over 100 µM and the TGI [15] was over 100 µM. It also gave a TGI [16] of over 100 µM, a TGI [17] of over 100 µM and a TGI [18] of over 100 µM. The TGI [19] was over 100 µM, the TGI [20] was over 100 µM and the TGI [21] was over 100 µM. For the same compound, the TGI [22] was over 100 µM, the TGI [23] was over 100 µM and the TGI [24] was over 100 µM. The TGI [25] was over 100 µM, the TGI [26] was over 100 µM and the TGI [27] was over 100 µM. The TGI [28] was over 100 µM, the TGI [29] was over 100 µM and the TGI [30] was over 100 µM. The TGI [31] was over 100 µM, the TGI [32] was over 100 µM and the TGI [33] was over 100 µM. For the same compound, the TGI [34] was over 100 µM, the TGI [35] was over 100 µM and the TGI [36] was over 100 µM. The TGI [37] was over 100 µM, the TGI [38] was over 100 µM and the TGI [39] was over 100 µM. For the same compound, the TGI [40] was over 100 µM, the TGI [41] was over 100 µM and the TGI [42] was over 100 µM. The TGI [43] was over 100 µM, the TGI [44] was over 100 µM and the TGI [45] was over 100 µM. For the same compound, the TGI [46] was over 100 µM, the TGI [47] was over 100 µM and the TGI [48] was over 100 µM. For the same compound, the TGI [49] was over 100 µM, the TGI [50] was over 100 µM and the TGI [51] was over 100 µM. It also gave a TGI [52] of over 100 µM, a TGI [53] of over 100 µM and a TGI [54] of over 100 µM. It also gave a TGI [55] of over 100 µM, a TGI [56] of over 95.5 µM and a TGI [57] of over 76.4 µM. For the same compound, the TGI [58] was over 100 µM and the TGI [59] was over 100 µM.
For `CN1CCC2(CC1)SC[C@H]1C(=O)N(c3ccc(Cl)cc3)C(=O)N12`, the TGI [1] was over 100 µM, the TGI [2] was over 100 µM and the TGI [3] was over 100 µM. It also gave a TGI [4] of over 100 µM, a TGI [5] of over 100 µM and a TGI [6] of over 100 µM. The TGI [7] was over 100 µM, the TGI [8] was over 100 µM and the TGI [9] was over 100 µM. The TGI [10] was over 100 µM, the TGI [11] was over 100 µM and the TGI [12] was over 100 µM. For the same compound, the TGI [13] was over 100 µM, the TGI [14] was over 100 µM and the TGI [15] was over 100 µM. For the same compound, the TGI [16] was over 100 µM, the TGI [17] was over 100 µM and the TGI [18] was over 100 µM. The TGI [19] was over 100 µM, the TGI [20] was 86.3 µM and the TGI [21] was over 100 µM. For the same compound, the TGI [22] was over 100 µM, the TGI [23] was over 100 µM and the TGI [24] was over 100 µM. The TGI [25] was over 100 µM, the TGI [26] was over 100 µM and the TGI [27] was over 100 µM. The TGI [28] was over 100 µM, the TGI [29] was over 100 µM and the TGI [30] was over 100 µM. It also gave a TGI [31] of over 100 µM, a TGI [32] of over 100 µM and a TGI [33] of over 100 µM. The TGI [34] was over 100 µM, the TGI [35] was over 100 µM and the TGI [36] was over 100 µM. It also gave a TGI [37] of over 100 µM, a TGI [38] of over 100 µM and a TGI [39] of over 100 µM. It also gave a TGI [40] of over 100 µM, a TGI [41] of over 100 µM and a TGI [42] of over 100 µM. For the same compound, the TGI [43] was over 100 µM, the TGI [44] was over 100 µM and the TGI [45] was over 100 µM. The TGI [46] was over 100 µM, the TGI [47] was over 100 µM and the TGI [48] was over 100 µM. The TGI [49] was over 100 µM, the TGI [50] was over 100 µM and the TGI [51] was over 100 µM. For the same compound, the TGI [52] was over 100 µM, the TGI [53] was over 100 µM and the TGI [54] was over 100 µM. The TGI [55] was over 100 µM, the TGI [56] was over 100 µM and the TGI [57] was over 100 µM. For the same compound, the TGI [58] was over 100 µM and the TGI [59] was over 100 µM.
